Measurements from patent US12279855B2, “Highly-timed resolved myocardial blood-oxygen-level-dependent magnetic resonance imaging” (Cedars-Sinai Medical Center, priority 2018, dated 2025).
Entries after “also recorded” stand apart in the source; their conditions may differ. Like-named read-outs stand apart in the source and are kept apart here.

How the values were obtained:
[1] = extended vasodilatory state, cited from earlier work
[2] = system: Anesthetized dogs (intact; with chronic myocardial infarction), myocardium; assay: Beat-to-beat cardiac BOLD MRI at 3T before and after regadenoson injection; format: in vivo, dog
Protocol: FIG. 2A-FIG. 2F depicts in accordance with various embodiments of the invention, dynamics of BOLD response at rest and under the influence of regadenoson. BOLD response was relatively flat (fluctuated within +/−5%) throughout the measurement at rest (FIG. 2A), but peaks at 2-3 minutes after regadenoson injection to 10-15% and then plateaus after 4 minutes of injection (FIG. 2B). […] BOLD response was relatively flat in Remote and Affected territories at rest (FIG. 2D). However, under the influence of regadenoson (FIG. 2E), the BOLD response remained flat in Affected myocardium, while there was a delayed but rising BOLD response in Remote myocardium peaking at approximately 5 minutes was observed (FIG. 2E). The corresponding LGE image (with evidence of infarction) of the slice and where BOLD responses were measured are shown in FIG. 2F.
Methods. The proposed cardiac BOLD MRI approach was developed based on a LRT formalism (acquisition and reconstruction) that was previously used for ungated cardiac T1 mapping. It is composed of 3 parts: (i) adiabatic T2 preparation that is repeated at a fixed interval to ensure consistent T2 weighting; (ii) repeat acquisition of a set of central k-space lines with GRE readout every other TR to serve as respiratory and cardiac navigators for reconstruction; and (iii) interleaving of a set of golden-ratio radial GRE readout lines with the navigator lines serving as LRT training data. In brief, we modeled a high-dimensional cardiac image space (cardiac motion (Uc), respiratory motion (Ur), T1 recovery time (Ut), and time after excitation (Ut)) as a low-rank tensor that is partially separable. The complete tensors of all subspaces were recovered from the frequently sampled navigator signal using LRT completion. Subsequently cardiac and respiratory phased-resolved, beat-to-beat cardiac BOLD images were reconstructed. Anesthetized dogs (intact, n=2; and with chronic myocardial infarction, n=2) underwent continuous acquisition in a 3T MRI system (Siemens, Verio) that began 1-minute prior to regadenoson injection ([…]; duration of injection=30 sec) and ended 6 minutes after regadenoson injection. The data acquisition and reconstruction schemes are illustrated in FIG. 1. Sequence parameters were: scan time: 6 mins, delay between T2prep=800 ms; TE (T2prep time)=60 ms; GRE readout (TE/TR=1.4/3.3 ms, flip angle=12°, FOV=270×270 mm2, in-plane resolution: 1.7×1.7 mm2, 1 slice of thickness: 6 mm).
Results. […] LGE images show the region where the BOLD responses were measured. […] In animals with chronic MI (FIG. 2D, FIG. 2E and FIG. 2F), rest BOLD Response was also relatively stable in the infarcted and remote myocardium. However, following regadenoson injection, there was no response in the affected (infarcted) myocardium; but in the remote myocardium, a noticeably delayed hyperemic BOLD Response was observed (compared to intact animals), which peaked ˜5 minutes after regadenoson injection and plateaued to above 25%.

[3] = intact animal, healthy myocardium, regadenoson 2.5 mg/kg over 30 sec

Compound	terminal half-life ([1]; range printed in mixed units (min to hours), literature reference) [min]	terminal half-life ([1]; literature references) [min]	BOLD response in Affected (infarcted) myocardium ([2]; animal with chronic MI, affected territory, regadenoson 2.5 mg/kg over 30 sec)	plateau of BOLD Response in Remote myocardium ([2]; animal with chronic MI, remote territory, regadenoson 2.5 mg/kg over 30 sec)	plateau of normalized BOLD Response [2, 3]	time after injection at which BOLD response plateaus [2, 3] [min]	time over which BOLD response rises / peaks after regadenoson injection [2, 3] [min]	BOLD response at peak after regadenoson injection ([2]; intact animal, healthy myocardium, regadenoson injection 2.5 mg/kg over 30 sec, normalized BOLD response)
OCCN(CCO)c1nc(N2CCCCC2)c2nc(N(CCO)CCO)nc(N3CCCCC3)c2n1 [dipyridamole]	40 to 600	–	–	–	–	–	–	–
Nc1nc(N/N=C/C2CCCCC2)nc2c1ncn2[C@@H]1O[C@H](CO)[C@@H](O)[C@H]1O [binodenoson]	–	10 to 120	–	–	–	–	–	–
CNC(=O)c1cnn(-c2nc(N)c3ncn([C@@H]4O[C@H](CO)[C@@H](O)[C@H]4O)c3n2)c1 [regadenoson]	–	33 to 108	remained flat; also recorded: no response	above 25%	more than 10%	4	2 to 3	10-15%
